Assay results as given in patent US11191717B2, “Topical therapy for the treatment of skin malignancies using nanoparticles of taxanes” (DFB SORIA, LLC, priority 2017, dated 2021).
Read-outs that look alike come from different tables or passages of the source.

Columns and labels:
[1] = Particle size analysis of paclitaxel nanoparticles lots (ACCUSIZER 780); assay type: physicochemical; details: nanoparticle API in 0.1% w/w SDS solution
Procedure: Instrument parameters: Max. Concentration: 9000 particles/mL, No. containers: 1, Sensor Range: Summation, Lower Detection Limit: 0.5 μm, Flow Rate: 30 mL/min, No. Analysis pulls: 4, Time between pulls: 1 sec, Pull volume: 10 mL, Tare Volume: 1 mL, Prime volume: 1 mL, Include First Pull: Not Selected.
Vortexed for 5-10 minutes and sonicated in a water batch for 1 minute.
Method: Filled a plastic bottle with filtered (0.22 μm) 0.1% w/w SDS solution and analyzed the Background.

[2] = Observations of paclitaxel nanoparticle crystals in various substances and solutions of substances (light microscopy); assay type: physicochemical
[3] = test system: intact human cadaver skin; test: In vitro skin penetration diffusion study (Franz diffusion cell); assay type: in vitro ADME; details: results in Table 14 (formulas F1 through F13)
Procedure: The skin was centered and the edges flattened out. […] Additional receptor fluid was added where necessary.
Cells were left uncapped during the experiment.

[4] = methanol/water 15/85 (v/v), 37° C., pH 7, 75 rpm, cited from earlier work

CC(=O)O[C@H]1C(=O)[C@@]2(C)[C@H]([C@H](OC(=O)c3ccccc3)[C@]3(O)C[C@H](OC(=O)[C@H](O)[C@@H](NC(=O)c4ccccc4)c4ccccc4)C(C)=C1C3(C)C)[C@]1(OC(C)=O)CO[C@@H]1C[C@@H]2O [Paclitaxel nanoparticles lot used in formulas listed in Tabl] [listing 1 of 2 here]
Particle size, Mean (number-weighted differential distribution) [1]: 0.861 μm | Particle size, Median (number-weighted differential distribution) [1]: 0.710 μm | Particle size, Mode (number-weighted differential distribution) [1]: 0.572 μm

CC(=O)O[C@H]1C(=O)[C@@]2(C)[C@H]([C@H](OC(=O)c3ccccc3)[C@]3(O)C[C@H](OC(=O)[C@H](O)[C@@H](NC(=O)c4ccccc4)c4ccccc4)C(C)=C1C3(C)C)[C@]1(OC(C)=O)CO[C@@H]1C[C@@H]2O [Paclitaxel nanoparticles lot used in formulas listed in Tabl] [listing 2 of 2 here]
Particle size, Mean (number-weighted differential distribution) [1]: 0.83 μm

CC(=O)O[C@H]1C(=O)[C@@]2(C)[C@H]([C@H](OC(=O)c3ccccc3)[C@]3(O)C[C@H](OC(=O)[C@H](O)[C@@H](NC(=O)c4ccccc4)c4ccccc4)C(C)=C1C3(C)C)[C@]1(OC(C)=O)CO[C@@H]1C[C@@H]2O [Paclitaxel nanoparticles, paclitaxel]
Visual observation by light microscopy- Needle shaped crystals observed? ([2]; in Aluminum sulfate 0.1-0.2% in water, @ 7 days, RT): Yes, >5 μm, @ | Visual observation by light microscopy- Needle shaped crystals observed? ([2]; in Ammonium lauryl sulfate 2% in water, @ 3 days, RT): Yes, >5 μm @ | Visual observation by light microscopy- Needle shaped crystals observed? ([2]; in Benzalkonium chloride (50%) 2% in water, @ 7 days & 21 days, RT): No, <5 μm @ | Visual observation by light microscopy- Needle shaped crystals observed? ([2]; in CARBOPOL ULTREZ 10 (with Ammonium hydroxide as neutralizer) 0.5% in water, @ 8 days & 21 days, RT): No, <5 μm, @ 8 | Visual observation by light microscopy- Needle shaped crystals observed? ([2]; in Castor Oil 100%, @ 24 hrs & 9 days, RT): No, <5 μm @ 24 | Visual observation by light microscopy- Needle shaped crystals observed? ([2]; in Dimethicone, 1000 cSt 100%, @ 24 hrs & 6 days, RT): No, <5 μm @ 24 | Visual observation by light microscopy- Needle shaped crystals observed? ([2]; in FOMBLIN HC04 100%, @ 4, 7 & 13 days, RT): No, <5 μm @ 4, | Visual observation by light microscopy- Needle shaped crystals observed? ([2]; in Hydroxyethyl cellulose 1% in water, @ 7 days, RT): Yes, >5 μm, @ | Visual observation by light microscopy- Needle shaped crystals observed? ([2]; in Hydroxypropyl methylcellulose 1% in water, @ 3 days, RT): Yes, >5 μm @ | Visual observation by light microscopy- Needle shaped crystals observed? ([2]; in Lecithin 1% in water, @ 24 hrs, RT): Yes, >10 μm, @ | Visual observation by light microscopy- Needle shaped crystals observed? ([2]; in Light Mineral Oil NF 100%, @ 3 days, RT & 40 C.): No, <5 μm @ 3 | Visual observation by light microscopy- Needle shaped crystals observed? ([2]; in Magnesium nitrate 5% in water, @ 3 days, RT): Yes, >5 μm @ | Visual observation by light microscopy- Needle shaped crystals observed? ([2]; in Mannitol 5% in water, @ 7 days, RT): Yes, >5 μm, @ | Visual observation by light microscopy- Needle shaped crystals observed? ([2]; in Mineral Oil USP (heavy) 100%, @ 3 days, RT & 40 C.): No, <5 μm @ 3 | Visual observation by light microscopy- Needle shaped crystals observed? ([2]; in PEG 400 10% in water, @ 22 days, RT & 60 C.): Yes, >5 μm @ 22 | Visual observation by light microscopy- Needle shaped crystals observed? ([2]; in Poloxamer 188 2% in water, @ 7 days, RT): Yes, >5 μm @ 7 | Visual observation by light microscopy- Needle shaped crystals observed? ([2]; in Poloxamer 407 2% in water, @ 5 & 7 days, RT): No, <5 μm @ | Visual observation by light microscopy- Needle shaped crystals observed? ([2]; in Polyoxyl 40 Hydrogenated Castor Oil (KOLLIPHOR RH40) 1% in water, @ 6 days, RT): Yes, <5 μm @ 6 | Visual observation by light microscopy- Needle shaped crystals observed? ([2]; in Polysorbate 80 0.5% in Saline, @ 7 days, RT & 60 C.): Yes, >5 μm @ | Visual observation by light microscopy- Needle shaped crystals observed? ([2]; in Polysorbate 80 0.5% in water, @ 22 days, RT & 60 C.): Yes, <5 μm @ 22 | Visual observation by light microscopy- Needle shaped crystals observed? ([2]; in Povidone 1% in water, @ 7 days & 21 days, RT): Yes, <5 μm @ 7 | Visual observation by light microscopy- Needle shaped crystals observed? ([2]; in Proline 3% in water, @ 7 days, RT): Yes, >5 μm, @ | Visual observation by light microscopy- Needle shaped crystals observed? ([2]; in Purified Water 100%, @ 5 days, RT & 60 C.): Yes, >5 μm, @ 5 | Visual observation by light microscopy- Needle shaped crystals observed? ([2]; in ST-Cyclomethicone 5 NF 100%, @ 24 hrs & 13 days, RT): No, <5 μm @ 24 | Visual observation by light microscopy- Needle shaped crystals observed? ([2]; in Saline 0.9% NaCl in water, @ 7 days, RT & 60 C.): Yes, >10 μm, @ | Visual observation by light microscopy- Needle shaped crystals observed? ([2]; in Sodium lauryl sulfate 2% in water, @ 7 days, RT): Yes, >5 μm, @ | Visual observation by light microscopy- Needle shaped crystals observed? ([2]; in Sodium phosphate monobasic 0.75% in water, @ 7 days, RT): Yes, >5 μm, @ | Visual observation by light microscopy- Needle shaped crystals observed? ([2]; in Sorbitol 5% in water, @ 7 days, RT): Yes, >5 μm, @ | Visual observation by light microscopy- Needle shaped crystals observed? ([2]; in Vitamin E TPGS 0.5% in water, @ 6 days, RT): Yes, <5 μm @ 6 | Visual observation by light microscopy- Needle shaped crystals observed? ([2]; in Zinc acetate […] in water, @ 7 days, RT): Yes, >5 μm, @

CC(=O)O[C@H]1C(=O)[C@@]2(C)[C@H]([C@H](OC(=O)c3ccccc3)[C@]3(O)C[C@H](OC(=O)[C@H](O)[C@@H](NC(=O)c4ccccc4)c4ccccc4)C(C)=C1C3(C)C)[C@]1(OC(C)=O)CO[C@@H]1C[C@@H]2O [Paclitaxel, paclitaxel]
transdermal flux of the paclitaxel through the skin (epidermis and dermis) [3]: less than 0.01 μg/cm^2

CC(=O)O[C@@]12CO[C@@H]1C[C@H](O)[C@@]1(C)C(=O)[C@H](O)C3=C(C)[C@@H](OC(=O)[C@H](O)[C@@H](NC(=O)OC(C)(C)C)c4ccccc4)C[C@@](O)([C@@H](OC(=O)c4ccccc4)[C@H]21)C3(C)C [docetaxel nanoparticles, docetaxel]
dissolution rate, dissolved in 30 minutes ([4]; made by milling): 9% | dissolution rate, dissolved in 30 minutes ([4]; made by the supercritical carbon dioxide method): 27%
